Data taken from patent US20060156431A1, “L-gulose dependent vitamin C synthesis” (Vlaams Interuniversitair Instituut Voor Biotechnologie VZW, priority 2003, published 2006).
Like-named read-outs stand apart in the source and are kept apart here.

Legend:
[1] = system: A. thaliana cell suspensions; assay: In vivo labeling of A. thaliana cell suspensions with D-[U-14C]Man and L-AA determination; format: cell-based, Arabidopsis thaliana; conditions: pre-incubated 20 hours with 2.5 mM compound; for [^14C]-labeled L-AA / [^14C]-labeled L-AA (% of control): labeled two hours with D-[U-14C]Man; for Cold L-AA: acid extracts, HPLC
Method: GDP-Man 3″,5″-epimerase assay and L-AA determination. The GDP-Man 3″,5″-epimerase activity and L-AA were measured by the HPLC method as described (13), with the exception that the concentration of methanol in solvent A was 0.5% and the flow rate was 0.8 ml/min.
In vivo labeling of A. thaliana cell suspensions with D-[U-14C]Man. In vivo labeling of A. thaliana cells was performed as described (13). Cell suspensions were pre-adapted to labeling conditions for 20 hours in the presence or absence of exogenous L-AA or its precursors (2.5 mM), followed by two hours labeling with 1 μCi of D-[U-14C]Man. L-AA was extracted with 5% metaphosphoric acid containing 2 mM DTT and 1 mM EDTA.

[2] = molecular target: T1, GDP-Man 3″,5″-epimerase of A. thaliana (Arabidopsis thaliana, UniProt Q93VR3); assay: GDP-Man 3″,5″-epimerase assay (HPLC); format: biochemical; conditions: for epimerase activity: purified epimerase, exogenously added dinucleotide; for inhibition at 1000 µM: read-out: inhibition of the epimerase activity
T1 construct: The hydroxylapatite fraction of native epimerase (11) was used; endogenous in cells; host or cells: Arabidopsis thaliana ecotype Columbia cell suspensions; enzyme purified, hydroxylapatite fraction
T1 sequence (Q93VR3 1-377): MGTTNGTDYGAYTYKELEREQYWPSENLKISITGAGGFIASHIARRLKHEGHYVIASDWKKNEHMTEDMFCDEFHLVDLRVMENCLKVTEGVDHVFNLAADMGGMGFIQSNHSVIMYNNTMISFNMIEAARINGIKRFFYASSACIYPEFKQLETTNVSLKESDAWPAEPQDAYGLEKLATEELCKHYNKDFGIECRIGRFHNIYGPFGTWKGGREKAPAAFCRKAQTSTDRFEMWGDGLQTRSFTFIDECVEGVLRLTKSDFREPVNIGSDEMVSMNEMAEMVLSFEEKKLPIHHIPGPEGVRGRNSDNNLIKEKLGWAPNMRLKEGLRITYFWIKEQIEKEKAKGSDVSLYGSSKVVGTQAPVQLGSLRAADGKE
Method: Characterization of GDP-Man 3″,5″-epimerase of A. thaliana. (A) Steady-state parameters of the native (purified from A. thaliana cell suspensions) and recombinant enzyme. The hydroxylapatite fraction of native epimerase (11) was used. The affinity-purified recombinant enzymes were used. […] Double reciprocal plots are shown and each line represents a fixed GDP concentration: 0 μM, circles; 2 μM, triangles; and 4 μM, squares. V0 is pmol of GDP-L-Gal/L-Gul produced per minute. GDP-Man concentrations were from 1.1 to 5.5 μM. Inset: Secondary plot of slopes versus GDP concentration was used to determine the Ki value for GDP. […] Incubations contained GDP-[^14C]Man (3.4 μM), increasing amounts of GDP-L-Fuc, and an aliquot of the hydroxylapatite fraction of epimerase. Kinetic measurements were performed in duplicates; standard deviation was equal or less than 5%.

Chlorella epimerase = conditions: read-out: Km for the GDP-Man substrate; cited from earlier work

Compound | Cold L-AA (% of control) [1] | [^14C]-labeled L-AA [1] | [^14C]-labeled L-AA (% of control) [1] | Cold L-AA [1] | other results
O=C[C@@H](O)[C@@H](O)[C@H](O)[C@@H](O)CO [L-Gulose, L-gulose] | 190 % of control | 872 10^−3 × cpm/mg fw | 65 % of control | 403 nmol/g fw | –
NC(=O)c1ccc[n+]([C@@H]2O[C@H](COP(=O)([O-])OP(=O)(O)OC[C@H]3O[C@@H](n4cnc5c(N)ncnc54)[C@H](OP(=O)(O)O)[C@@H]3O)[C@@H](O)[C@H]2O)c1 [NADP+] | – | – | – | – | epimerase activity [2]: 110 % of control
Nc1nc2c(ncn2[C@@H]2O[C@H](COP(=O)(O)OP(=O)(O)O[C@H]3O[C@H](CO)[C@@H](O)[C@H](O)[C@@H]3O)[C@@H](O)[C@H]2O)c(=O)[nH]1 [GDP-Man, GDP-D-mannose] | – | – | – | – | Km ([2]; native epimerase, FIG. 1A, read-out: Km for the GDP-Man substrate): 4.4 µM; Km (Chlorella epimerase): 96 µM
C[C@@H]1O[C@H](OP(=O)(O)OP(=O)(O)OC[C@H]2O[C@@H](n3cnc4c(=O)[nH]c(N)nc43)[C@H](O)[C@@H]2O)[C@@H](O)[C@H](O)[C@@H]1O [GDP-L-Fuc, Guanosine diphospho-L-fucose] | – | – | – | – | IC50 [2]: 70 µM; type of inhibition of the epimerase ([2]; even at 1 mM concentration): partial inhibition
O=C1O[C@H]([C@@H](O)CO)C(O)=C1O [L-AA, L-ascorbic acid] | 832 % of control | 448 10^−3 × cpm/mg fw | 33 % of control | 1764 nmol/g fw | inhibition at 1000 µM ([2]; 1 mM): 15%
O=C1O[C@H]([C@H](O)CO)C(O)=C1O [D-isoascorbic acid] | – | – | – | – | inhibition of the epimerase activity ([2]; 1 mM): no effect
adenosine diphospho-D-glucose [ADP-D-Glc] | – | – | – | – | effect on the enzyme activity ([2]; adenosine derivative): no effect
Nc1nc2c(ncn2[C@@H]2O[C@H](COP(=O)(O)OP(=O)(O)O[C@H]3O[C@H](CO)[C@@H](O)[C@H](O)[C@H]3O)[C@@H](O)[C@H]2O)c(=O)[nH]1 [GDP-Glc, guanosine diphospho-D-glucose] | – | – | – | – | Ki [2]: 5 µM
Nc1nc2c(ncn2[C@@H]2O[C@H](COP(=O)(O)OP(=O)(O)O)[C@@H](O)[C@H]2O)c(=O)[nH]1 [GDP] | – | – | – | – | Ki [2]: 0.7 µM
O=C[C@@H](O)[C@H](O)[C@H](O)[C@@H](O)CO [L-galactose] | 315 % of control | 423 10^−3 × cpm/mg fw | 32 % of control | 668 nmol/g fw | inhibition of the epimerase activity ([2]; 1 mM): no effect
NC(=O)c1ccc[n+]([C@@H]2O[C@H](COP(=O)([O-])OP(=O)(O)OC[C@H]3O[C@@H](n4cnc5c(N)ncnc54)[C@H](O)[C@@H]3O)[C@@H](O)[C@H]2O)c1 [NAD+] | – | – | – | – | epimerase activity [2]: 145 % of control
O=C1O[C@H]([C@@H](O)CO)[C@@H](O)[C@@H]1O [L-galactono-1,4-lactone] | 170 % of control | 790 10^−3 × cpm/mg fw | 59 % of control | 360 nmol/g fw | inhibition at 1000 µM [2]: 14%
NC(=O)C1=CN([C@@H]2O[C@H](COP(=O)(O)OP(=O)(O)OC[C@H]3O[C@@H](n4cnc5c(N)ncnc54)[C@H](O)[C@@H]3O)[C@@H](O)[C@H]2O)C=CC1 [NADH] | – | – | – | – | epimerase activity [2]: 78 % of control
O=C1O[C@H]([C@@H](O)CO)[C@H](O)[C@@H]1O [L-Gulono-1,4-lactone, L-gulono-1,4-lactone] | 165 % of control | 722 10^−3 × cpm/mg fw | 54 % of control | 345 nmol/g fw | –
NC(=O)C1=CN([C@@H]2O[C@H](COP(=O)(O)OP(=O)(O)OC[C@H]3O[C@@H](n4cnc5c(N)ncnc54)[C@H](OP(=O)(O)O)[C@@H]3O)[C@@H](O)[C@H]2O)C=CC1 [NADPH] | – | – | – | – | epimerase activity [2]: 88 % of control
